Assay results taken from patent US4211772A, “Benzopyran glycoside acetals and ketals” (Laboratoires Sarget, priority 1977, dated 1980).
Values after ≈ are worked out from the molar mass of the structure shown. Where two headings read alike, the source gives them in different places.

Tests used:
Aldose Reductase = molecular target: T1, Aldose Reductase (Bos taurus, UniProt P16116); assay: Inhibition of aldose reductase in vitro (enzyme from beef eye lenses, glyceraldehyde substrate); format: biochemical; details: in DMF solution, read-out: percentages of inhibition (aldose reductase)
T1 construct: The enzyme is extracted from beef eye lenses; from tissue; host or cells: beef eye lenses
Text: Inhibition of Aldose Reductase In Vitro
The reoxidation of NADPH coupled to the enzymatic reaction was followed spectrophotometrically at 340 nm.

OF1 EOPS mice = assay: Acute i.p. toxicity in OF1 EOPS mice; format: in vivo; details: neutralized borate buffer, over 7 days
Procedure: The acute toxicity of the compounds of the present invention was determined in mice.

capillary permeability = assay: Capillaroprotecting effects: capillary permeability; format: in vivo, conventional male Wistar rats
Procedure: (§1) Capillaroprotecting effects
The capillary permeability was determined by the method of Charlier et al, Arch. Inter. Physiol.

capillary resistance = assay: Capillaroprotecting effects: capillary resistance; format: in vivo, male OFA EOPS rats
Procedure: as §1
The capillary resistance was determined by a variant of the method of Charlier et al, Arch. Inter. Physiol.

carragenin edema = assay: Anti-inflammatory activity: carragenin edema test; format: in vivo; details: for % inhibition of carragenin edema: borate buffer pH 7, 24 h; for inhibition in vivo at 75 mg/kg / inhibition in vivo at 100 mg/kg / inhibition in vivo at 150 mg/kg / inhibition in vivo at 200 mg/kg: Rattus norvegicus, ip
Summary of the method: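 Male Wistar EOPS rats receive 0.1 ml of 5% carragenin suspension in physiological serum into the hind-paw metatarsal muscle, with test substance given i.p. in neutralized solution at the same time. Paw edema is measured by plethysmometry at several times after carragenin and reported as % inhibition against pH-matched physiological serum controls.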

Solubilities in water = format: physicochemical; details: water; read-out: Solubilities in water

Compound: C[C@@H]1O[C@@H](Oc2c(-c3ccc(O)c(O)c3)oc3cc(O)cc(O)c3c2=O)[C@@H]2OC(C)(C)O[C@@H]2[C@H]1O [No. 3, 3-O-(2,3-O,O-isopropylidene-α-L-rhamnosyl)-quercetin]
- inhibition at 100 µM (Aldose Reductase; 10^-4 mole/l): 100%
- inhibition at 10 µM (Aldose Reductase; 10^-5 mole/l): 92%
- inhibition at 1 µM (Aldose Reductase; 10^-6 mole/l): 80%
- inhibition at 0.1 µM (Aldose Reductase; 10^-7 mole/l): 40%
- dose until which no mortality resulted (OF1 EOPS mice): 400 mg/kg
- percentage reduction of capillary permeability (capillary permeability; 50 mg/kg i.p.): 21%
- percentage reduction of capillary permeability (capillary permeability; 100 mg/kg i.p.): 25%
- percentage reduction of capillary permeability (capillary permeability; 200 mg/kg i.p.): 59%
- % of animals for which the effect is ≥ 25 u cm Hg/h (capillary resistance; 50 mg/kg i.p.): 40%
- capillary resistance, effect observed (capillary resistance; 50 mg/kg i.p.): 19.5 ± 7.4 u cm Hg/h
- % of animals for which the effect is ≥ 25 u cm Hg/h (capillary resistance; 100 mg/kg i.p.): 80%
- capillary resistance, effect observed (capillary resistance; 100 mg/kg i.p.): 34.75 ± 11.1 u cm Hg/h
- % of animals for which the effect is ≥ 25 u cm Hg/h (capillary resistance; 200 mg/kg i.p.): 100%
- capillary resistance, effect observed (capillary resistance; 200 mg/kg i.p.): 56 ± 11.3 u cm Hg/h
- % inhibition of carragenin edema (carragenin edema; 75 mg/kg i.p.): 21%
- % inhibition of carragenin edema (carragenin edema; 100 mg/kg i.p.): 17%
- % inhibition of carragenin edema (carragenin edema; 150 mg/kg i.p.): 11%
- % inhibition of carragenin edema (carragenin edema; 200 mg/kg i.p.): 0%
- inhibition in vivo at 75 mg/kg (carragenin edema; 1 h, pH 7, read-out: % inhibition of carragenin edema, 75 mg/kg i.p., borate buffer pH 7, 1 h): 0%
- inhibition in vivo at 75 mg/kg (carragenin edema; 1 h, pH 7, read-out: % inhibition of carragenin edema, 75 mg/kg i.p., borate buffer pH 7, 1 h 1/2): 0%
- inhibition in vivo at 100 mg/kg (carragenin edema; 1 h, pH 7, read-out: % inhibition of carragenin edema, 100 mg/kg i.p., borate buffer pH 7, 1 h): 55%
- inhibition in vivo at 100 mg/kg (carragenin edema; 1 h, pH 7, read-out: % inhibition of carragenin edema, 100 mg/kg i.p., borate buffer pH 7, 1 h 1/2): 41%
- inhibition in vivo at 150 mg/kg (carragenin edema; 1 h, pH 7, read-out: % inhibition of carragenin edema, 150 mg/kg i.p., borate buffer pH 7, 1 h): 0%
- inhibition in vivo at 150 mg/kg (carragenin edema; 1 h, pH 7, read-out: % inhibition of carragenin edema, 150 mg/kg i.p., borate buffer pH 7, 1 h 1/2): 0%
- inhibition in vivo at 200 mg/kg (carragenin edema; 1 h, pH 7, read-out: % inhibition of carragenin edema, 200 mg/kg i.p., borate buffer pH 7, 1 h): 45%
- inhibition in vivo at 200 mg/kg (carragenin edema; 1 h, pH 7, read-out: % inhibition of carragenin edema, 200 mg/kg i.p., borate buffer pH 7, 1 h 1/2): 12%
- inhibition in vivo at 75 mg/kg (carragenin edema; 2 h, pH 7, read-out: % inhibition of carragenin edema, 75 mg/kg i.p., borate buffer pH 7, 2 h): 10%
- inhibition in vivo at 100 mg/kg (carragenin edema; 2 h, pH 7, read-out: % inhibition of carragenin edema, 100 mg/kg i.p., borate buffer pH 7, 2 h): 30%
- inhibition in vivo at 150 mg/kg (carragenin edema; 2 h, pH 7, read-out: % inhibition of carragenin edema, 150 mg/kg i.p., borate buffer pH 7, 2 h): 20%
- inhibition in vivo at 200 mg/kg (carragenin edema; 2 h, pH 7, read-out: % inhibition of carragenin edema, 200 mg/kg i.p., borate buffer pH 7, 2 h): 0%
- inhibition in vivo at 75 mg/kg (carragenin edema; 3 h, pH 7, read-out: % inhibition of carragenin edema, 75 mg/kg i.p., borate buffer pH 7, 3 h): 6%
- inhibition in vivo at 100 mg/kg (carragenin edema; 3 h, pH 7, read-out: % inhibition of carragenin edema, 100 mg/kg i.p., borate buffer pH 7, 3 h): 19%
- inhibition in vivo at 150 mg/kg (carragenin edema; 3 h, pH 7, read-out: % inhibition of carragenin edema, 150 mg/kg i.p., borate buffer pH 7, 3 h): 0%
- inhibition in vivo at 200 mg/kg (carragenin edema; 3 h, pH 7, read-out: % inhibition of carragenin edema, 200 mg/kg i.p., borate buffer pH 7, 3 h): 0%
- inhibition in vivo at 75 mg/kg (carragenin edema; 4 h, pH 7, read-out: % inhibition of carragenin edema, 75 mg/kg i.p., borate buffer pH 7, 4 h): 3%
- inhibition in vivo at 100 mg/kg (carragenin edema; 4 h, pH 7, read-out: % inhibition of carragenin edema, 100 mg/kg i.p., borate buffer pH 7, 4 h): 18%
- inhibition in vivo at 150 mg/kg (carragenin edema; 4 h, pH 7, read-out: % inhibition of carragenin edema, 150 mg/kg i.p., borate buffer pH 7, 4 h): 2%
- inhibition in vivo at 200 mg/kg (carragenin edema; 4 h, pH 7, read-out: % inhibition of carragenin edema, 200 mg/kg i.p., borate buffer pH 7, 4 h): 0%
- inhibition in vivo at 75 mg/kg (carragenin edema; 5 h, pH 7, read-out: % inhibition of carragenin edema, 75 mg/kg i.p., borate buffer pH 7, 5 h): 6%
- inhibition in vivo at 100 mg/kg (carragenin edema; 5 h, pH 7, read-out: % inhibition of carragenin edema, 100 mg/kg i.p., borate buffer pH 7, 5 h): 19%
- inhibition in vivo at 150 mg/kg (carragenin edema; 5 h, pH 7, read-out: % inhibition of carragenin edema, 150 mg/kg i.p., borate buffer pH 7, 5 h): 3%
- inhibition in vivo at 200 mg/kg (carragenin edema; 5 h, pH 7, read-out: % inhibition of carragenin edema, 200 mg/kg i.p., borate buffer pH 7, 5 h): 2%
- inhibition in vivo at 75 mg/kg (carragenin edema; 6 h, pH 7, read-out: % inhibition of carragenin edema, 75 mg/kg i.p., borate buffer pH 7, 6 h): 10%
- inhibition in vivo at 100 mg/kg (carragenin edema; 6 h, pH 7, read-out: % inhibition of carragenin edema, 100 mg/kg i.p., borate buffer pH 7, 6 h): 18%
- inhibition in vivo at 150 mg/kg (carragenin edema; 6 h, pH 7, read-out: % inhibition of carragenin edema, 150 mg/kg i.p., borate buffer pH 7, 6 h): 8%
- inhibition in vivo at 200 mg/kg (carragenin edema; 6 h, pH 7, read-out: % inhibition of carragenin edema, 200 mg/kg i.p., borate buffer pH 7, 6 h): 1%
- inhibition in vivo at 75 mg/kg (carragenin edema; read-out: % inhibition of carragenin edema, 75 mg/kg i.p., borate buffer pH 7, 1/2 h): 26%
- inhibition in vivo at 100 mg/kg (carragenin edema; read-out: % inhibition of carragenin edema, 100 mg/kg i.p., borate buffer pH 7, 1/2 h): 45%
- inhibition in vivo at 150 mg/kg (carragenin edema; read-out: % inhibition of carragenin edema, 150 mg/kg i.p., borate buffer pH 7, 1/2 h): 26%
- inhibition in vivo at 200 mg/kg (carragenin edema; read-out: % inhibition of carragenin edema, 200 mg/kg i.p., borate buffer pH 7, 1/2 h): 40%
- solubility (Solubilities in water): 1600 µg/mL (≈ 3.28 mM)
